Source: patent US20040229379A1, “Assay” (priority 2003, published 2004)

System: PDHK
Assay: Binding affinity of fluorescent binder structures for PDHK

`Cc1cc(C)n2c1C=C1C=CC(CCC(=O)NCc3ccc(C(=O)N4C[C@H](C)N(C(=O)[C@@](C)(O)C(F)(F)F)C[C@H]4C)cc3)=[N+]1[B-]2(F)F` [(IV)] was tested, and the “binding affinity for PDHK relative to (III/IIIA)” value was “lower binding affinity for PDHK than (III/IIIA)”.
